In patent US4011327A (priority 1975, dated 1977):
≈ marks a conversion by molar mass, not a printed value. Where “and” joins values, the source holds several entries; their conditions need not be identical. Equal entries are not always repeated. Where two headings read alike, the source gives them in different places.

Columns and labels:
Assay type in all cases: cell-based
[1] = system: Blastomyces dermatitidis; experiment: Antifungal activity in vitro, mycelial growth on Sabouraud dextrose agar; conditions: for weekly increments of the diameter of colony: duplicates a, b; for MIC: Blastomyces dermatitidis
[2] = system: Histoplasma capsulatum; experiment: microbe, parasite or virus in culture; conditions: for weekly increments of the diameter of colony: duplicates a, b; for MIC: Histoplasma capsulatum
[3] = system: Trichophyton rubrum; experiment: Antifungal activity in vitro, mycelial growth on Sabouraud dextrose agar; conditions: for weekly increments of the diameter of colony: duplicates a, b; for MIC: Trichophyton rubrum
[4] = system: Sporotrichum schenckii; experiment: as above; conditions: for weekly increments of the diameter of colony: duplicates a, b; for MIC: Sporothrix schenckii
[5] = 336 h, two week period, read-out: minimum in vitro inhibitory concentration
[6] = 336 h, read-out: minimum in vitro inhibitory concentration

CSC1(C)CCC2C(C)CCC(c3ccoc3)N2C1O (single isomer, unassigned) [Example 7-MTDOL, 7β-methylthiodeoxynupharidin-6α-ol]
weekly increments of the diameter of colony ([1]; 10 mcg/ml, week 1, No. 1107, 25° C): 14 mm
weekly increments of the diameter of colony ([1]; 10 mcg/ml, week 2, No. 1107, 25° C): 20 mm and 21 mm
weekly increments of the diameter of colony ([1]; 10 mcg/ml, week 3, No. 1107, 25° C): 35 mm and 32 mm
weekly increments of the diameter of colony ([1]; 20 mcg/ml, week 1, No. 1107, 25° C): 10 mm
weekly increments of the diameter of colony ([1]; 20 mcg/ml, week 2, No. 1107, 25° C): 16 mm and 15 mm
weekly increments of the diameter of colony ([1]; 20 mcg/ml, week 3, No. 1107, 25° C): 17 mm and 18 mm
weekly increments of the diameter of colony ([1]; 40 mcg/ml, week 1, No. 1107, 25° C): 7 mm and 6 mm
weekly increments of the diameter of colony ([1]; 40 mcg/ml, week 2, No. 1107, 25° C): 15 mm
weekly increments of the diameter of colony ([1]; 40 mcg/ml, week 3, No. 1107, 25° C): 20 mm and 28 mm
weekly increments of the diameter of colony ([1]; 60 mcg/ml, week 1, No. 1107, 25° C): 0 mm
weekly increments of the diameter of colony ([1]; 60 mcg/ml, week 2, No. 1107, 25° C): 5 mm
weekly increments of the diameter of colony ([1]; 60 mcg/ml, week 3, No. 1107, 25° C): 5 mm and 7 mm
weekly increments of the diameter of colony ([1]; 80 mcg/ml, week 1, No. 1107, 25° C): 0 mm
weekly increments of the diameter of colony ([1]; 80 mcg/ml, week 2, No. 1107, 25° C): 0 mm
weekly increments of the diameter of colony ([1]; 100 mcg/ml, week 1, No. 1107, 25° C): 0 mm
MIC [1, 5]: 80 µg/mL (≈ 271 µM)
MIC ([1]; 504 h, up to the end of 3 weeks, Sabouraud dextrose agar, read-out: concentration inhibiting mycelial growth): 80 µg/mL (≈ 271 µM)
weekly increments of the diameter of colony ([2]; 10 mcg/ml, week 2, No. 1106, 25° C): 15 mm and 10 mm
weekly increments of the diameter of colony ([2]; 10 mcg/ml, week 3, No. 1106, 25° C): 25 mm and 29 mm
weekly increments of the diameter of colony ([2]; 20 mcg/ml, week 1, No. 1106, 25° C): 0 mm
weekly increments of the diameter of colony ([2]; 20 mcg/ml, week 3, No. 1106, 25° C): 10 mm and 5 mm
weekly increments of the diameter of colony ([2]; 40 mcg/ml, week 1, No. 1106, 25° C): 0 mm
weekly increments of the diameter of colony ([2]; 60 mcg/ml, week 1, No. 1106, 25° C): 0 mm
weekly increments of the diameter of colony ([2]; 60 mcg/ml, week 2, No. 1106, 25° C): 0 mm
weekly increments of the diameter of colony ([2]; 60 mcg/ml, week 3, No. 1106, 25° C): 0 mm
weekly increments of the diameter of colony ([2]; 80 mcg/ml, week 1, No. 1106, 25° C): 0 mm
weekly increments of the diameter of colony ([2]; 80 mcg/ml, week 2, No. 1106, 25° C): 0 mm
weekly increments of the diameter of colony ([2]; 80 mcg/ml, week 3, No. 1106, 25° C): 0 mm
weekly increments of the diameter of colony ([2]; 100 mcg/ml, week 1, No. 1106, 25° C): 0 mm
weekly increments of the diameter of colony ([2]; 100 mcg/ml, week 2, No. 1106, 25° C): 0 mm
weekly increments of the diameter of colony ([2]; 100 mcg/ml, week 3, No. 1106, 25° C): 0 mm
MIC [2, 6]: 40 µg/mL (≈ 135 µM)
MIC ([2]; 504 h, read-out: concentration inhibiting mycelial growth): 40 µg/mL (≈ 135 µM)
weekly increments of the diameter of colony ([3]; 10 mcg/ml, week 1, No. 1112, 25° C): 10 mm and 11 mm
weekly increments of the diameter of colony ([3]; 10 mcg/ml, week 2, No. 1112, 25° C, colony overgrown by adjacent culture): 20 mm
weekly increments of the diameter of colony ([3]; 10 mcg/ml, week 3, No. 1112, 25° C, colony overgrown by adjacent culture): 22 mm and 25 mm
weekly increments of the diameter of colony ([3]; 20 mcg/ml, week 1, No. 1112, 25° C): 8 mm and 7 mm
weekly increments of the diameter of colony ([3]; 20 mcg/ml, week 2, No. 1112, 25° C): 21 mm and 20 mm
weekly increments of the diameter of colony ([3]; 20 mcg/ml, week 3, No. 1112, 25° C, b: colony overgrown by adjacent culture): 30 mm and 22 mm
weekly increments of the diameter of colony ([3]; 40 mcg/ml, week 1, No. 1112, 25° C): 8 mm and 6 mm
weekly increments of the diameter of colony ([3]; 40 mcg/ml, week 2, No. 1112, 25° C): 20 mm and 18 mm
weekly increments of the diameter of colony ([3]; 40 mcg/ml, week 3, No. 1112, 25° C): 30 mm and 26 mm
weekly increments of the diameter of colony ([3]; 60 mcg/ml, week 2, No. 1112, 25° C): 8 mm and 6 mm
weekly increments of the diameter of colony ([3]; 60 mcg/ml, week 3, No. 1112, 25° C): 14 mm and 15 mm
weekly increments of the diameter of colony ([3]; 80 mcg/ml, week 1, No. 1112, 25° C): 0 mm
weekly increments of the diameter of colony ([3]; 80 mcg/ml, week 2, No. 1112, 25° C): 5 mm
weekly increments of the diameter of colony ([3]; 80 mcg/ml, week 3, No. 1112, 25° C): 9 mm and 6 mm
weekly increments of the diameter of colony ([3]; 100 mcg/ml, week 3, No. 1112, 25° C): 6 mm and 7 mm
MIC [3, 6]: 100 µg/mL (≈ 338 µM)
MIC ([3]; 504 h, read-out: concentration inhibiting growth): 100 µg/mL (≈ 338 µM)
weekly increments of the diameter of colony ([4]; 10 mcg/ml, week 1, No. 1109, 25° C): 11 mm and 10 mm
weekly increments of the diameter of colony ([4]; 10 mcg/ml, week 2, No. 1109, 25° C): 25 mm and 24 mm
weekly increments of the diameter of colony ([4]; 20 mcg/ml, week 2, No. 1109, 25° C): 20 mm
weekly increments of the diameter of colony ([4]; 20 mcg/ml, week 3, No. 1109, 25° C): 31 mm and 29 mm
weekly increments of the diameter of colony ([4]; 40 mcg/ml, week 2, No. 1109, 25° C, a: colony overgrown by adjacent culture): 18 mm and 15 mm
weekly increments of the diameter of colony ([4]; 40 mcg/ml, week 3, No. 1109, 25° C, a: colony overgrown by adjacent culture): 18 mm and 25 mm
weekly increments of the diameter of colony ([4]; 60 mcg/ml, week 1, No. 1109, 25° C): 0 mm
weekly increments of the diameter of colony ([4]; 60 mcg/ml, week 2, No. 1109, 25° C): 10 mm
weekly increments of the diameter of colony ([4]; 60 mcg/ml, week 3, No. 1109, 25° C): 20 mm
weekly increments of the diameter of colony ([4]; 80 mcg/ml, week 1, No. 1109, 25° C): 0 mm
weekly increments of the diameter of colony ([4]; 80 mcg/ml, week 2, No. 1109, 25° C): 0 mm
weekly increments of the diameter of colony ([4]; 100 mcg/ml, week 1, No. 1109, 25° C): 0 mm
weekly increments of the diameter of colony ([4]; 100 mcg/ml, week 2, No. 1109, 25° C): 0 mm
weekly increments of the diameter of colony ([4]; 100 mcg/ml, week 3, No. 1109, 25° C): 0 mm
MIC [4, 5]: 100 µg/mL (≈ 338 µM)
MIC ([4]; 504 h, up to the end of 3 weeks, Sabouraud dextrose agar, read-out: concentration inhibiting growth): 100 µg/mL (≈ 338 µM)
